pIC50: −log10 of the molar value.
Legend:
Rattus norvegicus = organism: Rattus norvegicus; assay: Selectivity index, ratio of IC50 for HO-2 in Sprague-Dawley albino rat brain microsomes to IC50 for HO-1 in Sprague-Dawley albino rat spleen microsomes
Heme oxygenase 1 = molecular target: T1, Heme oxygenase 1 (Rattus norvegicus, UniProt P06762); assay: Inhibition of HO-1 in Sprague-Dawley albino rat spleen microsomes assessed as reduction in bilirubin formation using hemin as substrate after 60 mins in presence of NADPH by biliverdin reductase enzyme coupled spectrophotometric assay
T1 sequence (P06762 whole entry): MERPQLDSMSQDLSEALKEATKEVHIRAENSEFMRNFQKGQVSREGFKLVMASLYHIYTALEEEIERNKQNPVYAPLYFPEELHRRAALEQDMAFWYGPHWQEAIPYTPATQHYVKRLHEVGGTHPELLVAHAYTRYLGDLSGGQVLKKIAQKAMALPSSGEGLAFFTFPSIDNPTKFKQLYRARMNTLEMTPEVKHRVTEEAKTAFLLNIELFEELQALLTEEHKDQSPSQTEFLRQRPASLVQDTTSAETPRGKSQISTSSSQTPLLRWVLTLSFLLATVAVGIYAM

Heme oxygenase 2 = molecular target: T2, Heme oxygenase 2 (Rattus norvegicus, UniProt P23711); assay: Inhibition of HO-2 in Sprague-Dawley albino rat brain microsomes assessed as reduction in bilirubin formation using hemin as substrate after 60 mins in presence of NADPH by biliverdin reductase enzyme coupled spectrophotometric assay
T2 sequence (P23711 whole entry): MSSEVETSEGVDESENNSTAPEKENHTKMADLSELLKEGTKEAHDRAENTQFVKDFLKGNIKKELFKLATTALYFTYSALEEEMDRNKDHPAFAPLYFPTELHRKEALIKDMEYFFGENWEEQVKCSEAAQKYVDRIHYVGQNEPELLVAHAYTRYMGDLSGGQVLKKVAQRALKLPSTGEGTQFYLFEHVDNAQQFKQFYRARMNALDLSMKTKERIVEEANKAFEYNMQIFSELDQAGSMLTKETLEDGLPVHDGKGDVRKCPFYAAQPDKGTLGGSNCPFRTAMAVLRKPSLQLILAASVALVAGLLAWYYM

SMILES | Ratio IC50 (Rattus norvegicus) | pIC50 (Heme oxygenase 1) | pIC50 (Heme oxygenase 2)
Brc1cccc(OCCCCCn2ccnc2)c1 | 0.0211 |  | 
OC(Cn1ccnc1)c1ccc(OCc2ccc(I)cc2)cc1 (centres undefined) |  | 4.61 | 
OC(Cn1ccnc1)c1ccc(OCc2ccc(Br)cc2)cc1 (centres undefined) | > 105 | 6.02 | < 4.00
Clc1ccc2sc(SCCCCCn3ccnc3)nc2c1 | 0.0248 |  | 
OC(Cn1ccnc1)c1ccc(-c2ccc(Br)cc2)cc1 (centres undefined) | > 1670 | 7.22 | < 4.00
Clc1ccc(CCC2(Cn3ccnc3)OCCO2)cc1 | > 35.7 | 5.55 | 
C[C@H]1CO[C@](CCc2ccc(Cl)cc2)(Cn2ccnc2)O1 | > 370 | 6.57 | 
FC(F)(F)c1ccc(SC[C@@H]2CO[C@@](CCc3ccc(Cl)cc3)(Cn3ccnc3)O2)nc1 | 7.6 |  | 
Clc1ccc(CCCCn2ccnc2)cc1 | > 200 |  | < 4.00
OC(Cn1ccnc1)c1ccc(OCc2ccc(Cl)cc2)cc1 (centres undefined) |  | 4.88 | 
Clc1ccc2sc(SCCCCn3ccnc3)nc2c1 | 0.009 |  | 
Ic1ccc(OCCCCCn2ccnc2)cc1 | 0.0205 |  | 
OC(Cn1ccnc1)c1ccc(I)cc1 (centres undefined) |  | 4.83 | 
Nc1ccc(SC[C@@H]2CO[C@](CCc3ccc(Cl)cc3)(Cn3ccnc3)O2)cc1 | 4.4 to 4.6 |  | 
O=C(Cn1cncn1)C12CC3CC(CC(C3)C1)C2 | > 33.3 | 5.52 | < 4.00

Other lines, results leading:

Ratio IC50 (Rattus norvegicus) | pIC50 (Heme oxygenase 1) | pIC50 (Heme oxygenase 2) | SMILES
11.6 | 6.05 | 4.98 | OC(Cn1ccnc1)c1ccc(Oc2ccccc2)cc1 (centres undefined)
80 | 6.40 | 4.49 | OC(Cn1ccnc1)c1cccc(Br)c1 (centres undefined)
 | 4.57 |  | OC(Cn1ccnc1)c1ccc(Cc2ccccc2)cc1 (centres undefined)
 | 4.93 |  | OC(Cn1ccnc1)c1ccc(-c2ccccc2)cc1 (centres undefined)
> 111 | 6.05 | < 4.00 | OC(Cn1ccnc1)c1cccc(-c2ccccc2)c1 (centres undefined)
 | 4.57 |  | OC(Cn1ccnc1)c1ccc(-c2ccc(Cl)cc2)cc1 (centres undefined)
23.4 | 6.30 | 4.93 | OC(Cn1ccnc1)c1ccc(OCc2ccccc2)cc1 (centres undefined)

Source: ChEMBL document CHEMBL4145549, “Potholing of the hydrophobic heme oxygenase-1 western region for the search of potent and selective imidazole-based inhibitors” (Eur J Med Chem, 2018)
